Like-named read-outs stand apart in the source and are kept apart here.
Assays:
[1] = test system: IM resistant K562 cells (K562-R); test: Live-cell imaging (IncuCyte HD) of proliferation, IM resistant K562 cells; format: cell-based; details: Homo sapiens, 96 h, 4-day period, area under curve, read-out: IC50AUC, cytostatic effect on cell growth
Method: (§1) Kinetic measurements of cell proliferation and cytotoxicity were carried out by using the IncuCyte^TM HD real time imaging system (Essen BioScience, Hertfordshire, United Kingdom). After seeding in a polylysine-coated 96 well-plates, K562 cells were treated with different concentrations of compound. This IncuCyte™ microscope permits the acquisition of automated phase contrast images. Individual images are processed by an imbedded contrast-based confluence algorithm, which compute monolayer confluence for each image and at each time point. Multiple images are collected per well and averaged to provide a representative statistical measure of confluence.

MG63 cells = test: MTT cell viability assay, MG63 cells; format: cell-based; details: Homo sapiens, MG-63, MG63, 48 h, read-out: IC50 (μM) Mean ± SD
Method: (§2) All cell lines were purchased from the American Type Culture Collection (ATCC). The cell lines were growth at 37°C under 5% CO2 under humidified atmosphere. The cell lines K562 (derived from patients during the blast crisis phase of CML and IM sensitive), K562-R (IM resistance human CML), KmycBT15I (KBTI; IM resistant human CML, expressing the Bcr-Abl […] mutant), HEL (human erythroleukemia), HL60 (human acute myeloid leukemia), MOLM-13 (human acute myeloid leukemia), MV4.11 (human acute monocytic leukemia), HCT-15 (human colorectal adenocarcinoma), PC3 (human prostate cancer), MCF7 (human breast cancer), NCTC3749 (mouse lymphoma) as well as the MRC.5 cells (non-malignant human lung fibroblasts) were maintained in RPMI-1640 medium. The cell lines L1210 (mouse lymphocytic leukemia cells), Raw (mouse macrophage), HeLa (human epithelial cervix cancer), U-2 OS (human osteosarcoma), MG63 (human osteosarcoma) and T47D (human breast cancer adenocarcinoma) were maintained in DMEM. HEK293 cells stably expressing the GH receptor (HEKGHR) were maintained in DMEM-F12 medium. […]
(§3) Cells were seeded in 96-well plates (BD Falcon, France) at exponential growth density (5000–20000 cells/well) and treated with vehicle (0.05% DMSO) or compound (0.01 to 10 μM) for 48–72 h. […] Optical density was measured at 595 nm with the iMark Microplate Reader (BioRad, CA, USA).

K562 cells = test: Live-cell imaging (IncuCyte HD) of proliferation and cytotoxicity, K562 cells; format: cell-based, human; details: Homo sapiens
Method: as §1

[2] = as above; format: cell-based, human; details: human, K562 cells; K562, continuous exposure over 4-day period, area under curve; read-out: EC50AUC, cytotoxic effect
Method: as §1

HeLa cells = test: MTT cell viability assay, HeLa cells; format: cell-based; details: Homo sapiens, 48 h, read-out: IC50 (μM) Mean ± SD
Method: as §2, §3

HCT-15 cells = test: MTT cell viability assay, HCT-15 cells; format: cell-based; details: Homo sapiens, HCT-15, 48 h, read-out: IC50 (μM) Mean ± SD
Method: as §2, §3

## N#Cc1ccc(C2C3=C(CCCC3=O)OC3=C2C(=O)c2ccccc2C3=O)cc1 (stereo not shown) [CM363, 4-(1,6,11-trioxo-2,3,4,6,11,12-hexahydro-1H-benzo[b]xanthen-12-yl)benzonitrile]
[1]
  IC50: 500 ± 100 nM
MG63 cells
  IC50: 1.6 ± 0.9 µM
K562 cells; 96 h, IM sensitive K562, continuous exposure over 4-day period, area under curve, read-out: IC50AUC, cytostatic effect on cell growth
  IC50: 600 ± 300 nM
K562 cells; K562, 2 h transient exposure, then additional 72 h without compound, read-out: IC50AUC, cytostatic effect after transient exposure
  IC50: 1900 ± 500 nM
[2]
  EC50 at 4 days: 1100 ± 400 nM
HeLa cells
  IC50: 4.8 ± 0.4 µM
HCT-15 cells
  IC50: 3.3 µM
